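Values below derive from 48-hour exposures of cells grown in 96-well plates, with endpoints linearly interpolated between the two concentrations bracketing the appropriate inhibition level. Abbreviation: GI50, concentration required for 50% inhibition of growth.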 Active and inactive are the calls of the source. No stated cut-off is given here; in the data, active = GI50 up to about 1.1 µM and inactive = higher.
Key:
Assay in all cases: NCI-60 cell line screen, 48 h
SR = tested on: SR
MDA-MB-435 = tested on: MDA-MB-435
SK-MEL-2 = tested on: SK-MEL-2
SK-MEL-28 = tested on: SK-MEL-28
TK-10 = tested on: TK-10
CCRF-CEM = tested on: CCRF-CEM
BT-549 = tested on: BT-549
EKVX = tested on: EKVX
RXF 393 = tested on: RXF 393
NCI-H23 = tested on: NCI-H23
MOLT-4 = tested on: MOLT-4
ACHN = tested on: ACHN
SW-620 = tested on: SW-620
IGROV-1 = tested on: IGROV-1
HCT-116 = tested on: HCT-116
MCF7 = tested on: MCF7
HL-60 = tested on: HL-60
COLO 205 = tested on: COLO 205
DU-145 = tested on: DU-145
OVCAR-8 = tested on: OVCAR-8

| SMILES | GI50 (SR) | GI50 (MDA-MB-435) | GI50 (SK-MEL-2) | GI50 (SK-MEL-28) | GI50 (TK-10) | GI50 (CCRF-CEM) | GI50 (BT-549) | GI50 (EKVX) | GI50 (RXF 393) | GI50 (NCI-H23) | GI50 (MOLT-4) | GI50 (ACHN) | GI50 (SW-620) | GI50 (IGROV-1) | GI50 (HCT-116) | GI50 (MCF7) | GI50 (HL-60) | GI50 (COLO 205) | GI50 (DU-145) | GI50 (OVCAR-8) |
| --- | --- | --- | --- | --- | --- | --- | --- | --- | --- | --- | --- | --- | --- | --- | --- | --- | --- | --- | --- | --- |
| COC(=O)C1=NN2c3ccccc3CN([C@@H](C)c3ccccc3)C(=O)[C@@H]2C1 | 22 µM (inactive) | 16.6 µM (inactive) | 28.7 µM (inactive) | 38.7 µM (inactive) | 50.7 µM (inactive) | 25.7 µM (inactive) | 24.6 µM (inactive) | 24.6 µM (inactive) | 46.6 µM (inactive) | 32.9 µM (inactive) | 15 µM (inactive) | 34 µM (inactive) | 87.3 µM (inactive) | 64.1 µM (inactive) | 32.4 µM (inactive) | 34.8 µM (inactive) | 23.9 µM (inactive) | 35.6 µM (inactive) | 30.8 µM (inactive) | 34.6 µM (inactive) |
| OC(c1ccco1)C(F)(F)c1nc2ccccc2o1 (stereo not given) | > 100 µM (inactive) | > 100 µM (inactive) | > 100 µM (inactive) | > 100 µM (inactive) | > 100 µM (inactive) | > 100 µM (inactive) | > 100 µM (inactive) | > 100 µM (inactive) | > 100 µM (inactive) | > 100 µM (inactive) | > 100 µM (inactive) | > 100 µM (inactive) | > 100 µM (inactive) | > 100 µM (inactive) | > 100 µM (inactive) | 41.1 µM (inactive) | > 100 µM (inactive) | > 100 µM (inactive) | > 100 µM (inactive) | > 100 µM (inactive) |
| CC(=O)NC1C(OCc2ccccc2)OC(CO)C(O)C1OC(C)C(=O)NC(C)C(=O)NC(CCC(=O)NCCCNc1c2ccccc2nc2cccc([N+](=O)[O-])c12)C(N)=O (stereo not given) | 5.48 µM (inactive) | 1.16 µM (inactive) | 1.32 µM (inactive) | 2.58 µM (inactive) | 2.94 µM (inactive) | 7.48 µM (inactive) | 2.74 µM (inactive) | 3.57 µM (inactive) | 1.31 µM (inactive) | 2.55 µM (inactive) | 3.27 µM (inactive) | 0.792 µM (active) | 0.229 µM (active) | 19.1 µM (inactive) | 0.263 µM (active) | 0.64 µM (active) | 1.26 µM (inactive) | 0.57 µM (active) | 1.56 µM (inactive) | 1.05 µM (active) |
| CC(C)=CCC[C@@H](C)C1=C(Nc2ccccc2Cl)C(=O)C(C)=C(O)C1=O | 1.2 µM (inactive) | 4.85 µM (inactive) | 3.66 µM (inactive) | 11 µM (inactive) | 4.88 µM (inactive) | 1.01 µM (active) | 7.16 µM (inactive) | 3.12 µM (inactive) | 11.7 µM (inactive) | 2.84 µM (inactive) | 2.04 µM (inactive) | 2.26 µM (inactive) | 4.71 µM (inactive) | 2.45 µM (inactive) | 3.91 µM (inactive) | 7.69 µM (inactive) | 0.612 µM (active) | 2.84 µM (inactive) | 6.64 µM (inactive) | 2.81 µM (inactive) |
| COc1ccc(C2SCC(=O)N2NC(=O)C(C)Oc2ccccc2Cl)cc1 (stereo not given) | 26.1 µM (inactive) | 33 µM (inactive) | 18.7 µM (inactive) | > 100 µM (inactive) | 63.2 µM (inactive) | 31.8 µM (inactive) | 85.7 µM (inactive) | 83.2 µM (inactive) | 27.7 µM (inactive) | 67.8 µM (inactive) | 27 µM (inactive) | 38.5 µM (inactive) | 49.4 µM (inactive) | 56.2 µM (inactive) | 40.3 µM (inactive) | 32.4 µM (inactive) | 17.1 µM (inactive) | 26.5 µM (inactive) | 94.8 µM (inactive) | 61.1 µM (inactive) |
| Cc1c(N)nc(C(CC(N)=O)NCC(N)C(N)=O)nc1C(=O)NC(C(=O)NC(C)C(O)C(C)C(=O)NC(C(=O)NCCc1nc(-c2nc(C(=O)NCCCNC(C)c3ccccc3)cs2)cs1)C(C)O)C(OC1OC(CO)C(O)C(O)C1OC1OC(CO)C(O)C(OC(N)=O)C1O)c1c[nH]cn1 (stereo not given) | 2.3 µM (inactive) | > 50 µM (inactive) | 16.8 µM (inactive) | 31.5 µM (inactive) | 40.5 µM (inactive) | 4.33 µM (inactive) | 18.2 µM (inactive) | 47.1 µM (inactive) | 0.156 µM (active) | 0.753 µM (active) | 1.83 µM (inactive) | 0.0208 µM (active) | 17.7 µM (inactive) | 9.51 µM (inactive) | 0.328 µM (active) | 4.4 µM (inactive) | 7.59 µM (inactive) | 11.3 µM (inactive) | 7.29 µM (inactive) | 5.11 µM (inactive) |
| Cc1ccsc1/C(S)=N\c1ccc(Cl)c(/C=N/OC(C)(C)C)c1 | 19.9 µM (inactive) | 53.3 µM (inactive) | 41.8 µM (inactive) | 28.1 µM (inactive) | 16.6 µM (inactive) | 24.2 µM (inactive) | 22.9 µM (inactive) | 24.6 µM (inactive) | 14.8 µM (inactive) | 24.7 µM (inactive) | 12.3 µM (inactive) | 24.5 µM (inactive) | 35.3 µM (inactive) | 28.9 µM (inactive) | 16.4 µM (inactive) | 35.2 µM (inactive) | 24.2 µM (inactive) | 16.3 µM (inactive) | 25.5 µM (inactive) | 33 µM (inactive) |
| CC1(C)CC(O)C2=C(O1)C(=O)c1ncccc1C2=O (stereo not given) | 2.34 µM (inactive) | 1.71 µM (inactive) | 2.58 µM (inactive) | 1.69 µM (inactive) | 6.46 µM (inactive) | 2.19 µM (inactive) | 1.75 µM (inactive) | 2.54 µM (inactive) | 3.4 µM (inactive) | 1.64 µM (inactive) | 1.93 µM (inactive) | 2.93 µM (inactive) | 1.87 µM (inactive) | 2.17 µM (inactive) | 2.28 µM (inactive) | 2.12 µM (inactive) | 1.7 µM (inactive) | 2.32 µM (inactive) | 5.07 µM (inactive) | 2.6 µM (inactive) |
| Oc1cccc(-c2nc3cc(F)ccc3s2)c1 | 18 µM (inactive) | 23.9 µM (inactive) | 19.8 µM (inactive) | 19.2 µM (inactive) | 12.4 µM (inactive) | 22.3 µM (inactive) | 16.9 µM (inactive) | 3.84 µM (inactive) | 25.9 µM (inactive) | 16.6 µM (inactive) | 20.5 µM (inactive) | 23.8 µM (inactive) | 22 µM (inactive) | 2.34 µM (inactive) | 21.3 µM (inactive) | 1.6 µM (inactive) | 23.2 µM (inactive) | 15.1 µM (inactive) | 18.7 µM (inactive) | 20.6 µM (inactive) |
| CC[C@](O)(CC(=O)O[C@H]1C(=O)O[C@@H]2C[C@H]3C(C)=CC(=O)[C@@H](O)[C@]3(C)[C@H]3[C@@]4(O)OC[C@]32[C@@H]1[C@@H](C)[C@H]4O)C(C)C | < 0.01 µM (active) | < 0.01 µM (active) | < 0.01 µM (active) | < 0.01 µM (active) | < 0.01 µM (active) | < 0.01 µM (active) | < 0.01 µM (active) | < 0.01 µM (active) | < 0.01 µM (active) | < 0.01 µM (active) | < 0.01 µM (active) | < 0.01 µM (active) | < 0.01 µM (active) | < 0.01 µM (active) | < 0.01 µM (active) | < 0.01 µM (active) | < 0.01 µM (active) | < 0.01 µM (active) | < 0.01 µM (active) | < 0.01 µM (active) |

— ChEMBL document CHEMBL1201862, “PubChem BioAssay data set” (2004)
